Values after ≈ are worked out from the molar mass of the structure shown. Active and inactive are the calls of the source. The rule behind the calls is not given here.
Assays:
[1] = system: P388; assay: In vivo antitumor activity against mouse P388 cells assessed as increase in life span at 5 mg/kg, ip for 5 days; assay type: functional
[2] = Antitumor activity against human myeloid leukemia cells xenografted mouse at 3 mg/kg, iv for 14 days; assay type: functional, Leukemia cell
[3] = system: L1210; assay: Cytotoxicity against mouse L1210 cells assessed as cell lysis after 24 hrs by trypan blue assay; assay type: functional, cell-based
[4] = system: L1210; assay: Cytotoxicity against mouse L1210 cells assessed as cell viability by trypan blue assay; assay type: functional, cell-based
[5] = system: Staphylococcus aureus; assay: Antimicrobial activity against methicillin-resistant Staphylococcus aureus COL MB5393; assay type: functional, organism-based
[6] = system: L1210; assay: Cytotoxicity against mouse L1210 cells by MTT assay; assay type: functional, cell-based
[7] = system: Bacillus subtilis; assay: Antimicrobial activity against Bacillus subtilis MB964; assay type: functional
[8] = system: Pseudomonas aeruginosa; assay: Antimicrobial activity against Pseudomonas aeruginosa MB2824; assay type: functional
[9] = system: Enterococcus faecium; assay: Antimicrobial activity against Enterococcus faecium MB5572; assay type: functional
[10] = system: Staphylococcus aureus; assay: Antimicrobial activity against Staphylococcus aureus MB108; assay type: functional
[11] = system: Escherichia coli; assay: Antimicrobial activity against Escherichia coli MB1418; assay type: functional
[12] = system: Pectobacterium atrosepticum; assay: Antimicrobial activity against Erwinia atroseptica MB1159; assay type: functional
[13] = system: Proteus vulgaris; assay: Antimicrobial activity against Proteus vulgaris MB838; assay type: functional

CC1=C2C(=C[C@@](C)(CO)[C@@H]2O)C(=O)[C@](C)(O)C12CC2
Activity [1]: inactive

CC1=C2C(=O)C(C)(C)C=C2C(=O)[C@](C)(O)C12CC2 [DEHYDROILLUDIN M]
Activity [2]: 75%

CC1=C2CC(C)(C)C=C2C(=O)[C@](C)(O)C12CC2 [DEOXYILLUDIN M]
Activity ([1]; route intraperitoneal): 24%

COc1cccc2c1C(=O)c1c(O)c3c(c(O)c1C2=O)C[C@@](O)(C(=O)CO)C[C@@H]3O[C@H]1C[C@H](N)[C@H](O)[C@H](C)O1 [DOXORUBICIN]
Activity [3]: inactive | IC50 [4]: < 0.1 µg/mL | IC50 [5]: 16 µg/mL (≈ 29.4 µM) | IC50 [6]: 0.2 µg/mL (≈ 0.368 µM)

C=C1C(=O)C2=C(C[C@](C)(C(=O)O)C2)[C@](C)(O)C12CC2 [ILLUDINIC ACID]
MIC [7]: 16 µg/mL (≈ 61 µM) | MIC [8]: > 125 µg/mL | Activity [3]: inactive | MIC [9]: > 125 µg/mL | IC50 [4]: 10 µg/mL (≈ 38.1 µM) | MIC [10]: 1 µg/mL (≈ 3.81 µM) | MIC [11]: 125 µg/mL (≈ 477 µM) | MIC [5]: 16 µg/mL (≈ 61 µM) | MIC [12]: > 125 µg/mL | MIC [13]: > 125 µg/mL | IC50 [6]: 15 µg/mL (≈ 57.2 µM)

CN[C@H](CC(C)C)C(=O)N[C@H]1C(=O)N[C@@H](CC(N)=O)C(=O)N[C@H]2C(=O)N[C@H]3C(=O)N[C@H](C(=O)N[C@H](C(=O)O)c4cc(O)cc(O)c4-c4cc3ccc4O)[C@H](O)c3ccc(c(Cl)c3)Oc3cc2cc(c3O[C@@H]2O[C@H](CO)[C@@H](O)[C@H](O)[C@H]2O[C@H]2C[C@](C)(N)[C@H](O)[C@H](C)O2)Oc2ccc(cc2Cl)[C@H]1O [VANCOMYCIN]
Activity [3]: inactive | IC50 [4]: > 1000 µg/mL | IC50 [6]: > 1000 µg/mL

— ChEMBL document CHEMBL1145706, “Illudinic acid, a novel illudane sesquiterpene antibiotic” (J Nat Prod, 1997)
